Data: patent publication US20260132132A1, “3A,4,5,6-TETRAHYDRO-1 H-PYRAZOLO[3,4-C]PYRIDIN-7(7AH)-ONE DERIVATIVES AS FACTOR XIIA INHIBITORS” (KALVISTA PHARMACEUTICALS LIMITED, priority 2022, published 2026)

Tests used:
FXa = FXa (Homo sapiens, UniProt P00742); assay: Related protease inhibition: FXa, fluorogenic substrate; type: biochemical; conditions: fluorogenic substrate at Km, 25° C.; H1-H3 = % activity at 40 μM
Description: Human serine protease enzyme Plasma Kallikrein, KLK1, FXa, Plasmin, Thrombin and Trypsin were assayed for enzymatic activity using an appropriate fluorogenic substrate at Km concentration, FXIa at fixed substrate concentration of 100 μM and various concentrations of the test compound.

[1] = target: T1, Human Factor XIIa (hFXIIa) (Homo sapiens, UniProt P00748); assay: Determination of Human Factor XIIa (hFXIIa) inhibition, fluorogenic substrate IC50 assay; type: biochemical; conditions: fluorogenic substrate H-DPro-Phe-Arg-AFC at Km, 25° C., read-out: Human FXIIa IC50
T1 construct: purchased Enzyme Research Laboratories
T1 sequence (P00748 373-615 limits assumed): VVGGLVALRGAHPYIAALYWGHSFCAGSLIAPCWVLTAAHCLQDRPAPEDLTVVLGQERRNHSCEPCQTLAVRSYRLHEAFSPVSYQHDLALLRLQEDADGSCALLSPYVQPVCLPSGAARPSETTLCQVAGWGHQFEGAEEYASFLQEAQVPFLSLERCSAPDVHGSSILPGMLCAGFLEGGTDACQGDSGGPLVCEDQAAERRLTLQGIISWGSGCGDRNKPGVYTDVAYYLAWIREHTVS
T1 sequence (P00748 20-372 partner limits assumed): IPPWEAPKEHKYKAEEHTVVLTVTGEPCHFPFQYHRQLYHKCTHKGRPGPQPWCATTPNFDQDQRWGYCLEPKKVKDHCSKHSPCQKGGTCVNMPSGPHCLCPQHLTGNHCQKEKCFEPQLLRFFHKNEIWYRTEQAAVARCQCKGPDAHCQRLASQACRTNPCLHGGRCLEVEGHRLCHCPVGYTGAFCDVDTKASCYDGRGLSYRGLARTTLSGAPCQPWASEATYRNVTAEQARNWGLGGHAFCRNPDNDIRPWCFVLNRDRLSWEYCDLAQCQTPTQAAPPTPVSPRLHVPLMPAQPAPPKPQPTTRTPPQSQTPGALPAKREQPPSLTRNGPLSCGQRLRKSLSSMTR
Description: Determination of Human Factor XIIa (hFXIIa) inhibition
The Km for the cleavage of the substrate by hFXIIa was determined by standard transformation of the Michaelis-Menten equation, with subsequent inhibition assays performed at substrate Km concentration.

Sequence of FXa (P00742 235-488 limits assumed): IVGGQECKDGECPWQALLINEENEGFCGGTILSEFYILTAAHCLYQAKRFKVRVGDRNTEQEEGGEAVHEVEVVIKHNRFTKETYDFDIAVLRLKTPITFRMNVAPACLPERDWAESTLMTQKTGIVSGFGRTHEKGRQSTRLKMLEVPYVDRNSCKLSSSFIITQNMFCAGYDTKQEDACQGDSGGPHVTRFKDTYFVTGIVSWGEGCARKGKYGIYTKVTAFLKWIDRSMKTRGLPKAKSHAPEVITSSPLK
Sequence of FXa (P00742 41-179 partner limits assumed): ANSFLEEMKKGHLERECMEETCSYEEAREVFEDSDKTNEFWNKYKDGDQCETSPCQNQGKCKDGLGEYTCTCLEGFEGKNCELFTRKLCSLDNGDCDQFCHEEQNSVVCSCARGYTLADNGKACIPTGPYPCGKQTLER

IC50 (FXa)	IC50 [1]	SMILES
10000 to 40000 nM	100 to 300 nM	Cc1cn(C)nc1CNC(=O)c1nn(-c2cccc(Cl)c2)c2c1CCN(c1ccc3c(c1)C(=O)N(C)CC3)C2=O [Example 1225, 1-(3-chlorophenyl)-N-((1,4-dimethyl-1H-pyrazol-3-yl)methyl)-6-(2-methyl-1-oxo-1,2,3,4-tetrahydroisoquinolin-7-yl)-7-oxo-4,5,6,7-tetrahydro-1H-pyrazolo[3,4-c]pyridine-3-carboxamide]
> 40000 nM	100 to 300 nM	COc1cc(N2CCc3c(C(=O)NCC4CC4)nn(-c4cccc(Cl)c4)c3C2=O)cc2c1CCN(CCO)C2 [Example 1226, 1-(3-chlorophenyl)-N-(cyclopropylmethyl)-6-(2-(2-hydroxyethyl)-5-methoxy-1,2,3,4-tetrahydroisoquinolin-7-yl)-7-oxo-4,5,6,7-tetrahydro-1H-pyrazolo[3,4-c]pyridine-3-carboxamide]
10000 to 40000 nM	100 to 300 nM	Cc1cc(CNC(=O)c2nn(-c3cccc(Cl)c3)c3c2CCN(c2cc4c(nn2)CCN(CCO)C4)C3=O)nn1C [Example 1227, 1-(3-chlorophenyl)-N-((1,5-dimethyl-1H-pyrazol-3-yl)methyl)-6-(6-(2-hydroxyethyl)-5,6,7,8-tetrahydropyrido[4,3-c]pyridazin-3-yl)-7-oxo-4,5,6,7-tetrahydro-1H-pyrazolo[3,4-c]pyridine-3-carboxamide]
10000 to 40000 nM	100 to 300 nM	COc1cccnc1CNC(=O)c1nn(-c2cccc(Cl)c2)c2c1CCN(c1cc3c(nn1)CCN(CCO)C3)C2=O [Example 1229, 1-(3-chlorophenyl)-6-(6-(2-hydroxyethyl)-5,6,7,8-tetrahydropyrido[4,3-c]pyridazin-3-yl)-N-((3-methoxypyridin-2-yl)methyl)-7-oxo-4,5,6,7-tetrahydro-1H-pyrazolo[3,4-c]pyridine-3-carboxamide]
10000 to 40000 nM	10 to 100 nM	COc1ccnc(CNC(=O)c2nn(-c3cccc(Cl)c3)c3c2CCN(c2ccc4c(c2)CN(CCO)CC4)C3=O)c1 [Example 1230, 1-(3-chlorophenyl)-6-(2-(2-hydroxyethyl)-1,2,3,4-tetrahydroisoquinolin-7-yl)-N-((4-methoxypyridin-2-yl)methyl)-7-oxo-4,5,6,7-tetrahydro-1H-pyrazolo[3,4-c]pyridine-3-carboxamide]
> 40000 nM	100 to 300 nM	CN1CCc2ccc(N3CCc4c(C(=O)NCc5cc(C6CC6)n[nH]5)nn(-c5cccc(Cl)c5)c4C3=O)cc2C1=O [Example 1231, 1-(3-chlorophenyl)-N-((3-cyclopropyl-1H-pyrazol-5-yl)methyl)-6-(2-methyl-1-oxo-1,2,3,4-tetrahydroisoquinolin-7-yl)-7-oxo-4,5,6,7-tetrahydro-1H-pyrazolo[3,4-c]pyridine-3-carboxamide]
> 40000 nM	1000 to 3000 nM	O=C(O)c1nn(-c2cccc(Cl)c2)c2c1CCN(c1cccc(CN3CCCCC3)c1)C2=O [Example 1232, 1-(3-chlorophenyl)-7-oxo-6-(3-(piperidin-1-ylmethyl)phenyl)-4,5,6,7-tetrahydro-1H-pyrazolo[3,4-c]pyridine-3-carboxylic acid]
> 40000 nM	100 to 300 nM	COc1cccnc1CNC(=O)c1nn(-c2cccc(Cl)c2)c2c1CCN(c1ccc3c(c1)C(=O)N(C)CC3)C2=O [Example 1233, 1-(3-chlorophenyl)-N-((3-methoxypyridin-2-yl)methyl)-6-(2-methyl-1-oxo-1,2,3,4-tetrahydroisoquinolin-7-yl)-7-oxo-4,5,6,7-tetrahydro-1H-pyrazolo[3,4-c]pyridine-3-carboxamide]
3000 to 10000 nM	10 to 100 nM	CCN1CCc2cc(F)c(N3CCc4c(C(=O)NCc5cc(C6CC6)n[nH]5)nn(-c5cccc(Cl)c5)c4C3=O)cc2C1 [Example 1234, 1-(3-chlorophenyl)-N-((3-cyclopropyl-1H-pyrazol-5-yl)methyl)-6-(2-ethyl-6-fluoro-1,2,3,4-tetrahydroisoquinolin-7-yl)-7-oxo-4,5,6,7-tetrahydro-1H-pyrazolo[3,4-c]pyridine-3-carboxamide]
> 40000 nM	100 to 300 nM	COc1ccc(CNC(=O)c2nn(-c3cccc(Cl)c3)c3c2CCN(c2ccc4c(c2)C(=O)N(C)CC4)C3=O)cn1 [Example 1235, 1-(3-chlorophenyl)-N-((6-methoxypyridin-3-yl)methyl)-6-(2-methyl-1-oxo-1,2,3,4-tetrahydroisoquinolin-7-yl)-7-oxo-4,5,6,7-tetrahydro-1H-pyrazolo[3,4-c]pyridine-3-carboxamide]

Continued, compound first:

SMILES	IC50 (FXa)	IC50 [1]
CCCN1CCc2ccc(N3CCc4c(C(=O)NCc5cnccc5C)nn(-c5cccc(Cl)c5)c4C3=O)cc2C1=O [Example 1209, 1-(3-chlorophenyl)-N-((4-methylpyridin-3-yl)methyl)-7-oxo-6-(1-oxo-2-propyl-1,2,3,4-tetrahydroisoquinolin-7-yl)-4,5,6,7-tetrahydro-1H-pyrazolo[3,4-c]pyridine-3-carboxamide]	> 40000 nM	100 to 300 nM
CCCN1CCc2ccc(N3CCc4c(C(=O)NCc5cc(C)n(C)n5)nn(-c5cccc(Cl)c5)c4C3=O)cc2C1=O [Example 1210, 1-(3-chlorophenyl)-N-((1,5-dimethyl-1H-pyrazol-3-yl)methyl)-7-oxo-6-(1-oxo-2-propyl-1,2,3,4-tetrahydroisoquinolin-7-yl)-4,5,6,7-tetrahydro-1H-pyrazolo[3,4-c]pyridine-3-carboxamide]	> 40000 nM	100 to 300 nM
CCCN1CCc2ccc(N3CCc4c(C(=O)NCC5CC5)nn(-c5cccc(Cl)c5)c4C3=O)cc2C1=O [Example 1211, 1-(3-chlorophenyl)-N-(cyclopropylmethyl)-7-oxo-6-(1-oxo-2-propyl-1,2,3,4-tetrahydroisoquinolin-7-yl)-4,5,6,7-tetrahydro-1H-pyrazolo[3,4-c]pyridine-3-carboxamide]	> 40000 nM	300 to 1000 nM
Cc1ccncc1CNC(=O)c1nn(-c2cccc(Cl)c2)c2c1CCN(c1ccc3ccn(C)c(=O)c3c1)C2=O [Example 1212, 1-(3-chlorophenyl)-6-(2-methyl-1-oxo-1,2-dihydroisoquinolin-7-yl)-N-((4-methylpyridin-3-yl)methyl)-7-oxo-4,5,6,7-tetrahydro-1H-pyrazolo[3,4-c]pyridine-3-carboxamide]	> 40000 nM	1000 to 3000 nM
COc1cncc(CNC(=O)c2nn(-c3cccc(Cl)c3)c3c2CCN(c2ccc4c(c2)C(=O)N(C)CC4)C3=O)c1 [Example 1213, 1-(3-chlorophenyl)-N-((5-methoxypyridin-3-yl)methyl)-6-(2-methyl-1-oxo-1,2,3,4-tetrahydroisoquinolin-7-yl)-7-oxo-4,5,6,7-tetrahydro-1H-pyrazolo[3,4-c]pyridine-3-carboxamide]	3000 to 10000 nM	100 to 300 nM
O=C(NCC1CC1)c1nn(-c2cccc(Cl)c2)c2c1CCN(c1ccc3c(c1)C(=O)N(CCO)CC3)C2=O [Example 1216, 1-(3-chlorophenyl)-N-(cyclopropylmethyl)-6-(2-(2-hydroxyethyl)-1-oxo-1,2,3,4-tetrahydroisoquinolin-7-yl)-7-oxo-4,5,6,7-tetrahydro-1H-pyrazolo[3,4-c]pyridine-3-carboxamide]	> 40000 nM	100 to 300 nM
Cc1cn(C)nc1CNC(=O)c1nn(-c2cccc(Cl)c2)c2c1CCN(c1ccc3c(c1)C(=O)N(CCO)CC3)C2=O [Example 1217, 1-(3-Chlorophenyl)-N-[(1,4-dimethylpyrazol-3-yl)methyl]-6-[2-(2-hydroxyethyl)-1-oxo-3,4-dihydroisoquinolin-7-yl]-7-oxo-4,5-dihydropyrazolo[3,4-c]pyridine-3-carboxamide]	10000 to 40000 nM	10 to 100 nM
O=C(NCc1ccnnc1)c1nn(-c2cccc(Cl)c2)c2c1CCN(c1ccc3c(c1)CN(CCO)CC3)C2=O [Example 1218, 1-(3-chlorophenyl)-6-(2-(2-hydroxyethyl)-1,2,3,4-tetrahydroisoquinolin-7-yl)-7-oxo-N-(pyridazin-4-ylmethyl)-4,5,6,7-tetrahydro-1H-pyrazolo[3,4-c]pyridine-3-carboxamide]	> 40000 nM	100 to 300 nM
O=C(NCc1cocn1)c1nn(-c2cccc(Cl)c2)c2c1CCN(c1ccc3c(c1)CN(CCO)CC3)C2=O [Example 1223, 1-(3-chlorophenyl)-6-(2-(2-hydroxyethyl)-1,2,3,4-tetrahydroisoquinolin-7-yl)-N-(oxazol-4-ylmethyl)-7-oxo-4,5,6,7-tetrahydro-1H-pyrazolo[3,4-c]pyridine-3-carboxamide]	10000 to 40000 nM	100 to 300 nM
CCN1CCc2ccc(N3CCc4c(C(=O)NCc5nn(C)cc5C)nn(-c5cccc(Cl)c5)c4C3=O)cc2C1=O [Example 1224, 1-(3-chlorophenyl)-N-((1,4-dimethyl-1H-pyrazol-3-yl)methyl)-6-(2-ethyl-1-oxo-1,2,3,4-tetrahydroisoquinolin-7-yl)-7-oxo-4,5,6,7-tetrahydro-1H-pyrazolo[3,4-c]pyridine-3-carboxamide]	> 40000 nM	100 to 300 nM
